Laboratory results reported in ChEMBL document CHEMBL1201862, “PubChem BioAssay data set” (2004).
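Five compound concentrations were applied to cells in 96-well plates for 48 hours; endpoints were derived by simple linear interpolation of the resulting dose-response curve. GI50: concentration for 50% inhibition of growth.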 Activity calls are given as the source filed them. Cut-off read from the data, not from the text of the source: active = GI50 up to about 1.1 µM and inactive = higher.

Legend:
Experiment in all cases: NCI anticancer screen, dose series, 48 h
A549 = tested on: A549
BT-549 = tested on: BT-549
CAKI-1 = tested on: CAKI-1
EKVX = tested on: EKVX
HCT-15 = tested on: HCT-15
HOP-62 = tested on: HOP-62
HT-29 = tested on: HT-29
Hs-578T = tested on: Hs-578T
IGROV-1 = tested on: IGROV-1
KM12 = tested on: KM12
MDA-MB-435 = tested on: MDA-MB-435
NCI-H522 = tested on: NCI-H522
NCI/ADR-RES = tested on: NCI/ADR-RES
PC-3 = tested on: PC-3
SK-MEL-28 = tested on: SK-MEL-28
SK-OV-3 = tested on: SK-OV-3
UACC-257 = tested on: UACC-257
HL-60 = tested on: HL-60
Malme-3M = tested on: Malme-3M
NCI-H226 = tested on: NCI-H226

| Compound | GI50 (A549) | GI50 (BT-549) | GI50 (CAKI-1) | GI50 (EKVX) | GI50 (HCT-15) [µM] | GI50 (HOP-62) | GI50 (HT-29) | GI50 (Hs-578T) | GI50 (IGROV-1) | GI50 (KM12) | GI50 (MDA-MB-435) | GI50 (NCI-H522) | GI50 (NCI/ADR-RES) | GI50 (PC-3) | GI50 (SK-MEL-28) | GI50 (SK-OV-3) | GI50 (UACC-257) | GI50 (HL-60) | GI50 (Malme-3M) | GI50 (NCI-H226) |
| --- | --- | --- | --- | --- | --- | --- | --- | --- | --- | --- | --- | --- | --- | --- | --- | --- | --- | --- | --- | --- |
| O=c1nc(Oc2c(F)c(F)c(F)c(F)c2F)ccn1C1OC(CO)C(O)C1O (stereo not given) | > 100 µM (inactive) | > 100 µM (inactive) | > 100 µM (inactive) | > 100 µM (inactive) | > 100 | > 100 µM (inactive) | > 100 µM (inactive) | > 100 µM (inactive) | > 100 µM (inactive) | > 100 µM (inactive) | > 100 µM (inactive) | 54.5 µM (inactive) | > 100 µM (inactive) | > 100 µM (inactive) | > 100 µM (inactive) | > 100 µM (inactive) | > 100 µM (inactive) | – | – | – |
| O=C(N/N=C/C=C/c1ccccc1)c1ccccc1Nc1ccccc1C(=O)N/N=C/C=C/c1ccccc1 | > 100 µM (inactive) | > 100 µM (inactive) | > 100 µM (inactive) | > 100 µM (inactive) | > 100 | 3.58 µM (inactive) | > 100 µM (inactive) | 41.1 µM (inactive) | > 100 µM (inactive) | > 100 µM (inactive) | > 100 µM (inactive) | – | > 100 µM (inactive) | > 100 µM (inactive) | > 100 µM (inactive) | > 100 µM (inactive) | > 100 µM (inactive) | > 100 µM (inactive) | > 100 µM (inactive) | > 100 µM (inactive) |
| O=[N+]([O-])/C(C(Cl)=C(Cl)Cl)=C(/Cl)Sc1ccccc1 | 3.6 µM (inactive) | – | 2.51 µM (inactive) | 15.6 µM (inactive) | 2.15 | 3.54 µM (inactive) | 2.24 µM (inactive) | 3.15 µM (inactive) | 2.01 µM (inactive) | 17.9 µM (inactive) | 1.86 µM (inactive) | 1.23 µM (inactive) | 1.08 µM (active) | 2.26 µM (inactive) | 1.72 µM (inactive) | 20.1 µM (inactive) | 1.25 µM (inactive) | 0.139 µM (active) | 1.6 µM (inactive) | 7.76 µM (inactive) |
| CNC(=O)N(C)/N=N/CCCl | > 100 µM (inactive) | – | > 100 µM (inactive) | > 100 µM (inactive) | > 100 | > 100 µM (inactive) | > 100 µM (inactive) | > 100 µM (inactive) | > 100 µM (inactive) | > 100 µM (inactive) | > 100 µM (inactive) | > 100 µM (inactive) | > 100 µM (inactive) | > 100 µM (inactive) | > 100 µM (inactive) | > 100 µM (inactive) | > 100 µM (inactive) | > 100 µM (inactive) | > 100 µM (inactive) | > 100 µM (inactive) |
| CON(C)C(=O)CCCO | > 100 µM (inactive) | – | > 100 µM (inactive) | > 100 µM (inactive) | > 100 | > 100 µM (inactive) | > 100 µM (inactive) | – | > 100 µM (inactive) | > 100 µM (inactive) | – | > 100 µM (inactive) | – | – | > 100 µM (inactive) | > 10 µM (inactive) | > 100 µM (inactive) | > 100 µM (inactive) | > 100 µM (inactive) | > 100 µM (inactive) |
| O=C(OCCN=c1c2ccccc2ccc2ccccc12)c1ccccc1 | 86.5 µM (inactive) | 42.2 µM (inactive) | 83.4 µM (inactive) | 29.2 µM (inactive) | 63.4 | 64.6 µM (inactive) | 64 µM (inactive) | 40.3 µM (inactive) | 72.1 µM (inactive) | 86.5 µM (inactive) | > 100 µM (inactive) | – | 96.4 µM (inactive) | 67.3 µM (inactive) | > 100 µM (inactive) | > 100 µM (inactive) | > 100 µM (inactive) | 27.3 µM (inactive) | > 100 µM (inactive) | > 100 µM (inactive) |
| CCc1ccccc1NNc1cc(=O)[nH]c(=O)[nH]1 | 24.5 µM (inactive) | 19.4 µM (inactive) | 4.09 µM (inactive) | 17.5 µM (inactive) | – | 19.3 µM (inactive) | 20.8 µM (inactive) | 28.6 µM (inactive) | 19.5 µM (inactive) | 17.3 µM (inactive) | 19.1 µM (inactive) | – | 13.3 µM (inactive) | 16.6 µM (inactive) | 18.1 µM (inactive) | 22.6 µM (inactive) | 18.5 µM (inactive) | 26.7 µM (inactive) | > 10 µM (inactive) | 18.5 µM (inactive) |
| COc1ccc2oc(=N)c(C(N)=O)cc2c1 | > 100 µM (inactive) | 57.7 µM (inactive) | 50.6 µM (inactive) | – | 53.1 | 55.2 µM (inactive) | 56.4 µM (inactive) | 18.2 µM (inactive) | 30.5 µM (inactive) | 31.5 µM (inactive) | 49.4 µM (inactive) | – | 53.3 µM (inactive) | 37.9 µM (inactive) | 79.4 µM (inactive) | > 100 µM (inactive) | > 100 µM (inactive) | 22.9 µM (inactive) | – | 46.1 µM (inactive) |
| O=C1/C(=C/c2ccc(Cl)cc2)N=C(c2ccccc2)N1c1nc2ccccc2s1 | – | – | 58.9 µM (inactive) | > 100 µM (inactive) | 47.8 | > 100 µM (inactive) | 64.1 µM (inactive) | 20 µM (inactive) | 34.4 µM (inactive) | 61.9 µM (inactive) | 53 µM (inactive) | 24.4 µM (inactive) | 34 µM (inactive) | 29.9 µM (inactive) | 52.6 µM (inactive) | > 100 µM (inactive) | 35.6 µM (inactive) | 4.03 µM (inactive) | – | 49.7 µM (inactive) |
| O=c1n(-c2ccccc2)c(=O)n2c(-c3ccccc3)c(-c3ccccc3)n12 | > 100 µM (inactive) | > 100 µM (inactive) | > 100 µM (inactive) | > 100 µM (inactive) | 82.4 | > 100 µM (inactive) | 70.1 µM (inactive) | > 100 µM (inactive) | > 100 µM (inactive) | > 100 µM (inactive) | – | – | > 100 µM (inactive) | 77.8 µM (inactive) | > 100 µM (inactive) | > 100 µM (inactive) | > 100 µM (inactive) | 33.4 µM (inactive) | > 100 µM (inactive) | > 100 µM (inactive) |
| CC(=O)c1c2c(cc3c1CC1(Cc4ccccc4C1=O)C3)CCC2 (stereo not given) | 28.2 µM (inactive) | – | 8.55 µM (inactive) | 7.06 µM (inactive) | 32.1 | 30.4 µM (inactive) | 20.5 µM (inactive) | 28.8 µM (inactive) | 16.3 µM (inactive) | 16.2 µM (inactive) | 22.3 µM (inactive) | 25.5 µM (inactive) | 14.5 µM (inactive) | 41.3 µM (inactive) | 20.9 µM (inactive) | 48.9 µM (inactive) | 17.9 µM (inactive) | 5.2 µM (inactive) | 16.8 µM (inactive) | 22.9 µM (inactive) |
| O=c1[nH]nc(Nc2ccccc2)c2nnn(C3CCCCC3)c12 | > 100 µM (inactive) | > 100 µM (inactive) | > 100 µM (inactive) | > 100 µM (inactive) | > 100 | > 100 µM (inactive) | > 100 µM (inactive) | – | – | > 100 µM (inactive) | > 100 µM (inactive) | – | > 100 µM (inactive) | > 100 µM (inactive) | > 100 µM (inactive) | – | > 100 µM (inactive) | > 100 µM (inactive) | > 100 µM (inactive) | – |
| O=C(O)CCC/N=C(\C(=N\CCCC(=O)O)c1ccccc1)c1ccccc1 | > 100 µM (inactive) | > 100 µM (inactive) | – | > 100 µM (inactive) | > 100 | > 100 µM (inactive) | – | > 100 µM (inactive) | > 100 µM (inactive) | > 100 µM (inactive) | > 100 µM (inactive) | – | > 100 µM (inactive) | > 100 µM (inactive) | > 100 µM (inactive) | > 100 µM (inactive) | > 100 µM (inactive) | – | – | > 100 µM (inactive) |
| CC(=O)NC1C(OCc2ccccc2)OC(CO)C(O)C1OC(C)C(=O)NC(C(=O)NC(CCC(=O)Nc1ccc2c(c1)CN1C(=O)c3ccccc3C1=N2)C(N)=O)C(C)C (stereo not given) | > 100 µM (inactive) | > 100 µM (inactive) | > 100 µM (inactive) | > 100 µM (inactive) | > 100 | > 100 µM (inactive) | > 100 µM (inactive) | > 100 µM (inactive) | > 100 µM (inactive) | > 100 µM (inactive) | > 100 µM (inactive) | – | > 100 µM (inactive) | > 100 µM (inactive) | > 100 µM (inactive) | > 100 µM (inactive) | > 100 µM (inactive) | > 100 µM (inactive) | > 100 µM (inactive) | – |
| C[Si](C)(OCCS(=O)(=O)O)OC(=C1S(=O)(=O)OCCOS1(=O)=O)c1cccc2ccccc12 | > 100 µM (inactive) | > 100 µM (inactive) | > 100 µM (inactive) | > 100 µM (inactive) | > 100 | > 100 µM (inactive) | > 100 µM (inactive) | – | 72.9 µM (inactive) | > 100 µM (inactive) | > 100 µM (inactive) | – | > 100 µM (inactive) | > 100 µM (inactive) | > 100 µM (inactive) | – | > 100 µM (inactive) | 11.6 µM (inactive) | > 100 µM (inactive) | > 100 µM (inactive) |
| CN(C)CCOc1ccc2[nH]c(C(=O)N3CC(CCl)c4c3cc([N+](=O)[O-])c3ccccc43)cc2c1 (stereo not given) | – | 2.3 µM (inactive) | 2.79 µM (inactive) | 3.13 µM (inactive) | 1.86 | 1.88 µM (inactive) | 2.15 µM (inactive) | 3.01 µM (inactive) | 2.14 µM (inactive) | 1.71 µM (inactive) | 2 µM (inactive) | – | 1.65 µM (inactive) | 2.78 µM (inactive) | 1.72 µM (inactive) | 27.3 µM (inactive) | 2.01 µM (inactive) | 3.2 µM (inactive) | 1.94 µM (inactive) | 54.1 µM (inactive) |
